This note sets out measurements from the supplement of paper PMC10920090.

Experiment [1] relates to MDA-MB-231. As to the kind of experiment: drug sensitivity score (DSS), cytotoxicity CellTox Green; higher = more cytotoxic; extreme values may be limits of the assay. As to conditions: 72 h.
The subject of experiment [2] is MDA-MB-231. As to the kind of experiment: drug sensitivity score (DSS), cell viability CellTiter-Glo; higher = more sensitive; extreme values may be limits of the assay. As to conditions: 72 h.
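Throughout, for drug sensitivity score (DSS), cytotoxicity CellTox Green: DSS summarises each dose–response curve by combining IC50, EC50, maximal inhibition and efficacy across drug concentrations.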

Regarding `CC(=O)[C@]1(O)Cc2c(O)c3c(c(O)c2[C@@H](O[C@H]2C[C@H](N)[C@H](O)[C@H](C)O2)C1)C(=O)c1ccccc1C3=O` [Idarubicin], the drug sensitivity score was determined as 6.6 DSS in experiment [1] (shRNA: shPPFIA1_1), 7.5 DSS in experiment [1] (shRNA: shScramble), 6.4 DSS in experiment [2] (shRNA: shPPFIA1_1) and 10.7 DSS in experiment [2] (shRNA: shScramble).

For `Nc1cccc2c1C(=O)N(C1CCC(=O)NC1=O)C2=O` (centres undefined) [Pomalidomide], the drug sensitivity score in experiment [1] (shRNA: shPPFIA1_1), in experiment [1] (shRNA: shScramble), in experiment [2] (shRNA: shPPFIA1_1) and in experiment [2] (shRNA: shScramble) was 0 DSS each time.

With `Nc1ncnc2c1nc(Cl)n2[C@@H]1O[C@H](CO)[C@@H](O)[C@H]1O` [8-chloro-adenosine], the drug sensitivity score in experiment [1] (shRNA: shPPFIA1_1) came out at 0.9 DSS; in experiment [1] (shRNA: shScramble), 0 DSS; in experiment [2] (shRNA: shPPFIA1_1), 1.3 DSS; in experiment [2] (shRNA: shScramble) it was 10.6 DSS.

As to `CN(C)c1cc2c(cc1Sc1nc3c(N)nccc3n1CCNCC(C)(C)C)OCO2` [CUDC-305], the drug sensitivity score in experiment [1] (shRNA: shPPFIA1_1) is 3.4 DSS; in experiment [1] (shRNA: shScramble), 3.4 DSS; in experiment [2] (shRNA: shPPFIA1_1) it was 8.7 DSS; in experiment [2] (shRNA: shScramble), 13.6 DSS.

`Cn1c(=O)c(F)c(Nc2ccc(I)cc2F)c2c(=O)n(C[C@@H](O)CO)cnc21` [TAK-733]: the drug sensitivity score in experiment [1] (shRNA: shPPFIA1_1) is 6.9 DSS; in experiment [1] (shRNA: shScramble) it was 8.8 DSS; in experiment [2] (shRNA: shPPFIA1_1), 4.8 DSS; in experiment [2] (shRNA: shScramble), 12.8 DSS.

On to `CC1(C)NC(=O)N(c2ccc([N+](=O)[O-])c(C(F)(F)F)c2)C1=O` [Nilutamide], for which the drug sensitivity score in experiment [1] (shRNA: shPPFIA1_1), in experiment [1] (shRNA: shScramble), in experiment [2] (shRNA: shPPFIA1_1) and in experiment [2] (shRNA: shScramble) was 0 DSS in each case.

Turning to `CCn1c(=O)c(-c2cc[nH]n2)cc2c(C)nc(N)nc21` [Voxtalisib], the drug sensitivity score in experiment [1] (shRNA: shPPFIA1_1) amounted to 0 DSS; in experiment [1] (shRNA: shScramble) it was 0.2 DSS; in experiment [2] (shRNA: shPPFIA1_1) it was 0.8 DSS; in experiment [2] (shRNA: shScramble), 4.3 DSS.

In the case of `CCc1cncnc1N1CCN(Cc2nc3ccc(C(F)(F)F)cc3[nH]2)CC1`, the drug sensitivity score in experiment [1] (shRNA: shPPFIA1_1) came out at 0.6 DSS; in experiment [1] (shRNA: shScramble), 0 DSS; in experiment [2] (shRNA: shPPFIA1_1) it was 0 DSS; in experiment [2] (shRNA: shScramble), 1.3 DSS.

On to `Cc1nn(C)c(COc2ccc(N3CCN(S(=O)(=O)N(C)C)CC3)cc2)c1-c1cccc2c(CCCOc3cccc4ccccc34)c(C(=O)O)n(CCN3CCOCC3)c12`, for which the drug sensitivity score in experiment [1] (shRNA: shPPFIA1_1) was 2.4 DSS; in experiment [1] (shRNA: shScramble), 7.1 DSS; in experiment [2] (shRNA: shPPFIA1_1), 13.3 DSS; in experiment [2] (shRNA: shScramble), 4.2 DSS.

For the compound `C[C@H]1Oc2cc(cnc2N)-c2c(nn(C)c2C#N)CN(C)C(=O)c2ccc(F)cc21`, the drug sensitivity score in experiment [1] (shRNA: shPPFIA1_1), in experiment [1] (shRNA: shScramble), in experiment [2] (shRNA: shPPFIA1_1) and in experiment [2] (shRNA: shScramble) was 0 DSS in each case.

Take `C[C@]12O[C@H](C[C@]1(O)CO)n1c3ccccc3c3c4c(c5c6ccccc6n2c5c31)CNC4=O` [Lestaurtinib]: the drug sensitivity score in experiment [1] (shRNA: shPPFIA1_1) is 0 DSS; in experiment [1] (shRNA: shScramble), 0 DSS; in experiment [2] (shRNA: shPPFIA1_1), 1.1 DSS; in experiment [2] (shRNA: shScramble), 4.9 DSS.

In the case of `O=C(c1ccc(F)c(F)c1Nc1ccc(I)cc1F)N1CC(O)([C@@H]2CCCCN2)C1` [Cobimetinib], the drug sensitivity score in experiment [1] (shRNA: shPPFIA1_1) is 4.4 DSS; in experiment [1] (shRNA: shScramble), 12 DSS; in experiment [2] (shRNA: shPPFIA1_1), 1.6 DSS; in experiment [2] (shRNA: shScramble), 12.8 DSS.

Turning to `COc1cccc2cc(-c3nc([C@H]4CC[C@H](C(=O)O)CC4)n4ncnc(N)c34)[nH]c12` [OSI-027], the drug sensitivity score in experiment [1] (shRNA: shPPFIA1_1) worked out at 0 DSS; in experiment [1] (shRNA: shScramble) it was 0 DSS; in experiment [2] (shRNA: shPPFIA1_1) it was 0 DSS; in experiment [2] (shRNA: shScramble), 2.9 DSS.

Consider `Cc1cc(Nc2ncc(Cl)c(Nc3ccccc3S(=O)(=O)C(C)C)n2)c(OC(C)C)cc1C1CCNCC1` [Ceritinib], for which the drug sensitivity score was 0.9 DSS in experiment [1] (shRNA: shPPFIA1_1), 0 DSS in experiment [1] (shRNA: shScramble), 0 DSS in experiment [2] (shRNA: shPPFIA1_1) and 1.2 DSS in experiment [2] (shRNA: shScramble).

Regarding `CCN(c1cc(-c2ccc(CN3CCOCC3)cc2)cc(C(=O)NCc2c(C)cc(C)[nH]c2=O)c1C)C1CCOCC1` [Tazemetostat], the drug sensitivity score in experiment [1] (shRNA: shPPFIA1_1) is 0 DSS; in experiment [1] (shRNA: shScramble), 0 DSS; in experiment [2] (shRNA: shPPFIA1_1) it was 1 DSS; in experiment [2] (shRNA: shScramble), 0 DSS.

For the compound `CN(C)c1nc(N(C)C)nc(N(C)C)n1` [Altretamine], the drug sensitivity score in experiment [1] (shRNA: shPPFIA1_1), in experiment [1] (shRNA: shScramble), in experiment [2] (shRNA: shPPFIA1_1) and in experiment [2] (shRNA: shScramble) was 0 DSS each time.
